From the supplement of paper PMC10307832

Experiments:
Assay in all cases: relative viability (nuclei count vs DMSO), 5 days (fraction); higher = more cells survive
[1] = compound: CC1CC(=O)N(C2=CN=C(N=C2N1C3CCCC3)NC4=C(C=C(C=C4)C(=O)NC5CCN(CC5)C)OC)C [NPK76-II-72-1] + Cc1nc(Nc2ncc(C(=O)Nc3c(C)cccc3Cl)s2)cc(N2CCN(CCO)CC2)n1 [Dasatinib] (partner 0.075 µM)
Summary of the method: (§1)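 Dosing by pin tool came one day after lung cancer cell lines were seeded in 1536-well plates, using either one drug or a fixed anchor-drug dose plus five library-drug doses (not always all listed) in √10 steps. After 5 days, nuclei were counted on 4× images. Relative viability is treated-well nuclei count divided by vehicle-well nuclei count, and values are medians of duplicate plates.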

BI-2536 + Foretinib = compound: CC[C@@H]1C(=O)N(C)c2cnc(Nc3ccc(C(=O)NC4CCN(C)CC4)cc3OC)nc2N1C1CCCC1 [BI-2536] + COc1cc2c(Oc3ccc(NC(=O)C4(C(=O)Nc5ccc(F)cc5)CC4)cc3F)ccnc2cc1OCCCN1CCOCC1 [Foretinib] (partner 0.25 µM)
Summary of the method: as §1

BI-2536 + Trametinib = compound: CC[C@@H]1C(=O)N(C)c2cnc(Nc3ccc(C(=O)NC4CCN(C)CC4)cc3OC)nc2N1C1CCCC1 [BI-2536] + CC(=O)Nc1cccc(-n2c(=O)n(C3CC3)c(=O)c3c(Nc4ccc(I)cc4F)n(C)c(=O)c(C)c32)c1 [Trametinib] (partner 0.02 µM)
Summary of the method: as §1

[2] = compound: CC1CC(=O)N(C2=CN=C(N=C2N1C3CCCC3)NC4=C(C=C(C=C4)C(=O)NC5CCN(CC5)C)OC)C [NPK76-II-72-1] + CC(C)C[C@H](NC(=O)[C@H](Cc1ccccc1)NC(=O)c1cnccn1)B(O)O [Bortezomib] (partner 0.002 µM)
Summary of the method: as §1

Cell Line	relative viability ([1]; first compound 0.01 µM)	relative viability ([1]; first compound 0.03162 µM)	relative viability ([1]; first compound 0.1 µM)	relative viability ([1]; first compound 0.3162 µM)	relative viability ([1]; first compound 1 µM)	relative viability (BI-2536 + Foretinib; first compound 0.01 µM)	relative viability (BI-2536 + Foretinib; first compound 0.03162 µM)	relative viability (BI-2536 + Foretinib; first compound 0.1 µM)	relative viability (BI-2536 + Foretinib; first compound 0.3162 µM)	relative viability (BI-2536 + Foretinib; first compound 1 µM)	relative viability (BI-2536 + Trametinib; first compound 0.01 µM)	relative viability (BI-2536 + Trametinib; first compound 0.03162 µM)	relative viability (BI-2536 + Trametinib; first compound 0.1 µM)	relative viability (BI-2536 + Trametinib; first compound 0.3162 µM)	relative viability (BI-2536 + Trametinib; first compound 1 µM)	relative viability ([2]; first compound 0.01 µM)	relative viability ([2]; first compound 0.03162 µM)	relative viability ([2]; first compound 0.1 µM)	relative viability ([2]; first compound 0.3162 µM)	relative viability ([2]; first compound 1 µM)
NCI-H1437	0.416	0.388	0.321	0.33	0.417	1.25	1.18	0.852	0.198	0.179	0.636	0.483	0.428	0.149	0.177	0.473	0.445	0.425	0.409	0.494
LU99A	0.404	0.505	0.51	0.442	0.674	0.716	0.812	0.329	0.222	0.175	0.525	0.647	0.562	0.196	0.192	1.17	1.28	1.23	0.952	1.3
HCC-827	0.252	0.319	0.435	0.388	0.37	1.03	0.958	0.86	0.254	0.234	0.594	0.538	0.506	0.324	0.225	0.975	1.11	1.05	0.956	1.29
HCC-366	0.593	0.633	0.638	0.606	0.635	0.959	0.847	0.225	0.0291	0.0206	0.364	0.371	0.235	0.0287	0.0227	0.952	1.1	1.03	0.94	0.99
BEN	0.33	0.232	0.314	0.345	0.324	0.564	0.818	0.361	0.243	0.248	1.05	0.813	0.959	0.515	0.435	0.773	0.659	0.763	0.466	0.875
NCI-H23	0.752	0.771	0.565	0.859	0.776	0.954	0.813	0.229	0.153	0.162	0.372	0.464	0.201	0.112	0.14	0.856	1.22		1.06	1.12
201T	0.574	0.614	0.52	0.525	0.59	1.1	0.896	0.612	0.184	0.212	0.717	0.741	0.745	0.253	0.252	1.07	1.14	1.08	1.17	1.1
NCI-H460	0.512	0.543	0.497	0.458	0.501	1.11	1.06	0.147	0.0166	0.02	0.205	0.154	0.0447	0.0185	0.0133	1.02	1.26	1.11	1.01	1.18
NCI-H661	0.825	0.914	0.94	0.729	1.12	1.13	0.889	0.388	0.296	0.309	0.587	0.427	0.291	0.238	0.264	0.912	0.793	0.688	0.647	0.854
HCC-15	0.598	0.637	0.599	0.642	0.649	0.854	0.648	0.361	0.137	0.143	0.389	0.319	0.364	0.128	0.125	0.995	1.11	1.05	1.02	1.02
LCLC-103H	0.418	0.442	0.404	0.535	0.447	0.802	0.854	0.618	0.161	0.153	0.671	0.711	0.69	0.336	0.277	1.03	1.02	0.994	0.984	1.09
NCI-H441	0.565	0.709	0.452	0.541	0.727	0.918	0.673	0.261	0.194	0.222	0.517	0.29	0.158	0.154	0.162	0.872	0.312	0.319	0.527	0.451
EPLC-272H	0.318		0.332	0.251	0.357	0.715	0.0998	0.0735	0.0644	0.0639	0.286	0.261	0.191	0.12	0.166	0.984	0.916	0.773	0.829	0.975
